Publication PMC10395789, “Impacts of some metal ions on glutathione s-transferase in the liver of Chalcalburnus tarichi: an endemic species of Lake Van” (Turkish Journal of Chemistry, 2022)
Where “and” joins values, the source holds several entries; their conditions need not be identical. Equal entries are not always repeated.

Legend:
[1] = system: C. tarichi Pallas liver GST; test: In vitro inhibition effect of metals on GST enzyme activity; format: biochemical, Chalcalburnus tarichi Pallas; conditions: for Inhibition type / Ki: GSH substrate, Lineweaver–Burk plots; for IC50: purified liver GST, from Activity (%)–[metal ion] plots; for Ki: three metal concentrations, mean ± standard error of the mean
Experimental: C. tarichi Pallas fish were obtained from Van Lake basin. The liver samples of C. tarichi Pallas were immediately removed and preserved for experimental studies according to the cold chain principles. The livers were sliced into small pieces and successfully lysed by a homogenizer in 50 mM Tris/HCl buffer (pH 7.2) containing 1 mM DTT, 1 mM PMSF and 1 mM EDTA. Homogenate was centrifuged twice at 4 °C and 20,000 × g for 60 min. The supernatant was used in subsequent analyses. For GST purification, we followed the procedure described in our previous study.
(§1) GST activity was measured with the method in our previous study using CDNB as the model substrate.
IC50 was defined as the concentration of the compound causing 50% inhibition, and it was calculated based on Activity (%)–[metal ion] plots for each metal. The Ki values and inhibition types were found using Lineweaver–Burk plots. For the Ki study, we selected 3 inhibitor concentrations and made activity measurements relative to the control values, and then we calculated 1 / S and 1 / V values and plotted Ki plots. Analysis of the data and drawing of graphs were realized using GraphPad Prism ver. 8 for Mac (GraphPad Software, La Jolla California USA). […] Differences between data sets were considered statistically significant when the p-value was less than 0.05.

[2] = system: GST from Lake Van fish gills; set-up: method as in PMID 25856719; conditions: Lake Van fish gill GST; cited from earlier work
GST from muscle tissue = system: GST from muscle tissue; set-up: method as in Aksoy et al. 15; conditions: ref Aksoy et al. 15; cited from earlier work
GST from turkey livers = system: GST from turkey livers; set-up: method as in PMID 22989768; conditions: turkey liver GST; cited from earlier work
[3] = system: GST in the liver of Bonito; set-up: method as in Güller et al. 43; conditions: ref Güller et al. 43; cited from earlier work
[4] = system: C. tarichi Pallas liver GST; test: Kinetic analysis (Km, Vmax, Lineweaver–Burk plot) of liver GST with GSH and CDNB as cosubstrates; format: biochemical, Chalcalburnus tarichi Pallas; conditions: substrate of liver GST
Experimental: as §1
Bradford procedure was used for protein quantity. The optimal pH and ionic strength were determined based on the activity of the pure enzyme described in a previous study. The effects of temperature on GST activity were made spectrophotometrically at temperatures ranging from 0 to 80 °C as described in a previous study. Stable pH ranges were 5.5–8.0 and 7.0–9.0. The enzyme solution was mixed with the buffers at the corresponding pH values. The activities were assayed at every 24 h for 4 days. Different concentrations of GSH and CDNB were used as substrates to determine the Vmax and Km values of the GST enzyme. Vmax and Km values were determined based on the Lineweaver–Burk plot.

SMILES: [Ag+] [Ag^+]
- Inhibition type [1]: Noncompetitive
- Inhibitory effect among the studied metal ions ([1]; compared with Cu2+, Cd2+, Co2+): best inhibitory effect
- IC50 [1]: 0.21 µM
- Inhibitory effect among the studied metal ions [2]: best inhibitory effect
- Inhibitory effect among all studied metal ions (GST from muscle tissue): best inhibitor
- Inhibitory effect on enzyme activity (GST from turkey livers): potent inhibitory effect
- Effect on GST enzyme activity [3]: showed inhibitory effects

SMILES: O=[N+]([O-])c1ccc(Cl)c([N+](=O)[O-])c1 [CDNB]
- Km [4]: 890 µM
- Vmax [4]: 1.245 EU/mL and 1.25 EU/mL

SMILES: [Cd+2] [Cd^2+]
- Inhibition type [1]: Competitive
- Ki [1]: 117 ± 31 µM
- IC50 [1]: 235 µM
- Effect on GST enzyme activity [3]: showed inhibitory effects

SMILES: [Co+2] [Co^2+]
- Inhibition type [1]: Competitive
- IC50 [1]: 446 µM

SMILES: [Cr+2] [Cr^2+]
- Effect on GST enzyme activity [3]: did not show any impact

SMILES: [Cu+2] [Cu^2+]
- Inhibition type [1]: Competitive
- Ki [1]: 49 ± 9 µM
- IC50 [1]: 163 µM
- Effect on GST enzyme activity [3]: showed inhibitory effects

SMILES: [Fe+3] [Fe^3+]
- Effect on GST enzyme activity [3]: did not show any impact

SMILES: N[C@@H](CCC(=O)N[C@@H](CS)C(=O)NCC(=O)O)C(=O)O [GSH]
- Km [4]: 60 µM
- Vmax [4]: 0.562 EU/mL and 0.56 EU/mL

SMILES: [Pb+2] [Pb^2+]
- Effect on GST enzyme activity [3]: did not show any impact

SMILES: [Zn+2] [Zn^2+]
- Effect on GST enzyme activity [3]: showed inhibitory effects
